The values below come from ChEMBL document CHEMBL3045826, “Synthesis of new derivatives of 2,2-dimethyl-2,3-dihydro-7-benzo[b]furanol with potential antimicrobial activity” (Med Chem Res, 2009).

By EC50 is commonly meant the concentration at which the effect is half-maximal. By CC50 is commonly meant the concentration at which the toxic effect on the cells reaches its halfway point. Broadly, the MIC is the least concentration at which growth counts as inhibited.

Series [1] deals with Enterococcus hirae. Nature of the series: Antibacterial activity against Enterococcus hirae ATCC 10541 at 400 ug after 18 hr by disk diffusion method. The series is classed as functional. Background: In agar diffusion tests the substance spreads into inoculated agar from a disc or well.
Series [2] concerns Staphylococcus aureus. Nature of the series: Antibacterial activity against Staphylococcus aureus ATCC 25923 at 400 ug after 18 hr by disk diffusion method. It is filed as functional.
Series [3] has as its system Candida albicans. Nature of the series: Antifungal activity against Candida albicans ATCC 90028 at 400 ug after 24 to 48 hr by disk diffusion method. The series is classed as functional.
Series [4] has as its system Bordetella bronchiseptica. Nature of the series: Antibacterial activity against Bordetella bronchiseptica ATCC 461 at 400 ug after 18 hr by disk diffusion method. The series is classed as functional.
Series [5] has as its system Escherichia coli. The experiment in a line: Antibacterial activity against Escherichia coli ATCC 25922 at 400 ug after 18 hr by disk diffusion method. It is filed as functional.
Series [6] has as its system Staphylococcus aureus. The experiment in a line: Antibacterial activity against Staphylococcus aureus ATCC 29213 at 400 ug after 18 hr by disk diffusion method. The series is classed as functional.
For series [7], the system named is Bacillus subtilis. Nature of the series: Antibacterial activity against Bacillus subtilis ATCC 6633 at 400 ug after 18 hr by disk diffusion method. The series is classed as functional.
Series [8] has as its system Staphylococcus aureus. The experiment in a line: Antibacterial activity against Staphylococcus aureus NCTC 4163 at 400 ug after 18 hr by disk diffusion method. The series is classed as functional.
For series [9], the system named is Candida albicans. Nature of the series: Antifungal activity against Candida albicans ATCC 10231 at 400 ug after 24 to 48 hr by disk diffusion method. The series is classed as functional.
Series [10] relates to Pseudomonas aeruginosa. Nature of the series: Antibacterial activity against Pseudomonas aeruginosa NCTC 6749 at 400 ug after 18 hr by disk diffusion method. It is filed as functional, organism-based.
In series [11] the test system is Pseudomonas aeruginosa. Nature of the series: Antibacterial activity against Pseudomonas aeruginosa ATCC 15442 at 400 ug after 18 hr by disk diffusion method. It is filed as functional.
Series [12] has as its system Escherichia coli. Nature of the series: Antibacterial activity against Escherichia coli ATCC 10538 at 400 ug after 18 hr by disk diffusion method. It is filed as functional.
Series [13] has as its system Staphylococcus aureus. The experiment in a line: Antibacterial activity against Staphylococcus aureus ATCC 6538P at 400 ug after 18 hr by disk diffusion method. The series is classed as functional.
Series [14] concerns Proteus vulgaris. The experiment in a line: Antibacterial activity against Proteus vulgaris NCTC 4635 at 400 ug after 18 hr by disk diffusion method. It is filed as functional.
The subject of series [15] is Escherichia coli. Nature of the series: Antibacterial activity against Escherichia coli NCTC 8196 at 400 ug after 18 hr by disk diffusion method. The series is classed as functional.
Series [16] has as its system Candida parapsilosis. The experiment in a line: Antifungal activity against Candida parapsilosis ATCC 22019 at 400 ug after 24 to 48 hr by disk diffusion method. It is filed as functional.
Series [17] concerns Human immunodeficiency virus 1. Nature of the series: Antiviral activity against Human immunodeficiency virus 1 infected human MT4 cells assessed as inhibition of virus-induced cytopathogenicity after 4 days by MTT assay. The conditions noted are these: Human immunodeficiency virus 1, MT4, 96 h. It is filed as functional, organism-based. On the technique in general: Damage to the host cells serves as the signal in cytopathic effect assays.

Series [18] can be described thus: Cytotoxicity against Homo sapiens (human) MT4 cells after 96 hr by MTT assay. The series is classed as cell-based. For orientation: Tetrazolium assays rely on reduction of a dye to a coloured formazan, in cell work by metabolically active cells.
The test system of series [19] is Escherichia coli. Nature of the series: Antibacterial activity against Escherichia coli ATCC 10538 after 18 hr. The series is classed as functional, organism-based.
For series [20], the system named is Candida parapsilosis. Nature of the series: Antifungal activity against Candida parapsilosis ATCC 22019 after 18 hr. It is filed as functional. Conditions: Lodderomyces parapsilosis, ATCC 22019, 18 h.
Series [21] concerns Pseudomonas aeruginosa. Nature of the series: Antibacterial activity against Pseudomonas aeruginosa NCTC 6749 after 18 hr. It is filed as functional, organism-based.
The test system of series [22] is Candida albicans. The experiment in a line: Antifungal activity against Candida albicans ATCC 90028 after 18 hr. The conditions noted are these: ATCC 90028, 18 h. It is filed as functional.
The test system of series [23] is Escherichia coli. Nature of the series: Antibacterial activity against Escherichia coli NCTC 8196 after 18 hr. It is filed as functional, organism-based.
The test system of series [24] is Staphylococcus aureus. The experiment in a line: Antibacterial activity against Staphylococcus aureus ATCC 29213 after 18 hr. The series is classed as functional. Conditions: ATCC 29213, 18 h.
For series [25], the system named is Staphylococcus aureus. Nature of the series: Antibacterial activity against Staphylococcus aureus ATCC 6538P after 18 hr. The series is classed as functional.
For series [26], the system named is Escherichia coli. The experiment in a line: Antibacterial activity against Escherichia coli ATCC 25922 after 18 hr. It is filed as functional, organism-based.
Series [27] concerns Candida albicans. The experiment in a line: Antifungal activity against Candida albicans ATCC 10231 after 18 hr. It is filed as functional. The conditions noted are these: ATCC 10231, 18 h.
Series [28] concerns Staphylococcus aureus. Nature of the series: Antibacterial activity against Staphylococcus aureus ATCC 25923 after 18 hr. The series is classed as functional. Conditions: ATCC 25923, 18 h.
In series [29] the test system is Proteus vulgaris. Nature of the series: Antibacterial activity against Proteus vulgaris NCTC 4635 after 18 hr. The series is classed as functional. The conditions noted are these: NCTC 4635, 18 h.
Series [30] has as its system Pseudomonas aeruginosa. Nature of the series: Antibacterial activity against Pseudomonas aeruginosa ATCC 15442 after 18 hr. It is filed as functional. The conditions noted are these: ATCC 15442, 18 h.
For series [31], the system named is Bordetella bronchiseptica. The experiment in a line: Antibacterial activity against Bordetella bronchiseptica ATCC 461 after 18 hr. It is filed as functional, organism-based.
Series [32] concerns Staphylococcus aureus. Nature of the series: Antibacterial activity against Staphylococcus aureus NCTC 4163 after 18 hr. It is filed as functional. The conditions noted are these: NCTC 4163, 18 h.
The test system of series [33] is Bacillus subtilis. Nature of the series: Antibacterial activity against Bacillus subtilis ATCC 6633 after 18 hr. It is filed as functional. Conditions: ATCC 6633, 18 h.
Series [34] has as its system Enterococcus hirae. The experiment in a line: Antibacterial activity against Enterococcus hirae ATCC 10541 after 18 hr. It is filed as functional. Conditions: ATCC 10541, 18 h.

Converted amounts (≈) assume the structure as drawn. The source made the active and inactive calls. No cut-off for these calls is given here. Where only a bound is given, the exact number is not on record here.

As to `CC1(C)Cc2c(Br)c(Br)c(Br)c(OCC(O)CN3CCN(c4ccc(F)cc4)CC3)c2O1` (stereo not given), the “diameter of the inhibition zone (DIZ)” value (in the series with Enterococcus hirae [1]; with Staphylococcus aureus [2]; in the series with Candida albicans [3]; in series [4]; in the series with Escherichia coli [5]; in the series with Staphylococcus aureus [6]) was “inactive” in each case. In addition, the “diameter of the inhibition zone (DIZ)” value with Bacillus subtilis [7], in the series with Staphylococcus aureus [8], with Candida albicans [9], with Pseudomonas aeruginosa [10], in the series with Pseudomonas aeruginosa [11] and with Escherichia coli [12] was “inactive” in each case. The “diameter of the inhibition zone (DIZ)” value in the series with Staphylococcus aureus [13], in the series on Proteus vulgaris [14], in the series with Escherichia coli [15] and with Candida parapsilosis [16] was “inactive” each time.
On to `CC1(C)Cc2c(Br)c(Br)c(Br)c(OCC(O)CN3CCN(c4ccccc4)CC3)c2O1` (stereo not given), for which the EC50 in series [17] is more than 31 µM. The compound also registered a half-maximal cytotoxic concentration (CC50) at 96 h in series [18] of 31 µM.
Consider `CC1(C)Cc2c(Br)c(Br)c(Br)c(OCC(O)CN3CCCCC3)c2O1` (stereo not given), for which the zone of inhibition at 400 µg/disc in the series on Enterococcus hirae [1] (ATCC 10541, 18 h, read-out: DIZ) was 17 mm; in the series with Staphylococcus aureus [2] (ATCC 25923, 18 h, read-out: DIZ), 16 mm; with Candida albicans [3] (read-out: DIZ), 18 mm; with Staphylococcus aureus [6] (ATCC 29213, 18 h, read-out: DIZ) it was 16 mm; with Bacillus subtilis [7] (ATCC 6633, 18 h, read-out: DIZ), 19 mm; in the series with Staphylococcus aureus [8] (NCTC 4163, 18 h, read-out: DIZ), 18 mm. In addition, the zone of inhibition at 400 µg/disc in the series on Candida albicans [9] (read-out: DIZ) is 18 mm; in the series with Pseudomonas aeruginosa [11] (ATCC 15442, 18 h, read-out: DIZ), 20 mm; in the series with Staphylococcus aureus [13] (read-out: DIZ), 17 mm; in the series with Proteus vulgaris [14] (NCTC 4635, 18 h, read-out: DIZ), 20 mm; with Candida parapsilosis [16] (Lodderomyces parapsilosis, read-out: DIZ), 18 mm. The MIC entry (in the series on Escherichia coli [19]; in the series on Pseudomonas aeruginosa [21]; in the series on Escherichia coli [23]; with Escherichia coli [26]; in [31]) was “inactive” in each case. The MIC was determined as 100 µg/mL (≈ 184 µM) with Candida parapsilosis [20]; 100 µg/mL (≈ 184 µM) in the series with Candida albicans [22]; 100 µg/mL (≈ 184 µM) in the series on Staphylococcus aureus [24]; 50 µg/mL (≈ 92.2 µM) in the series with Staphylococcus aureus [25]; 100 µg/mL (≈ 184 µM) against Candida albicans [27]; 50 µg/mL (≈ 92.2 µM) with Staphylococcus aureus [28]. Further, the MIC in the series with Proteus vulgaris [29] came out at 50 µg/mL (≈ 92.2 µM); in the series on Pseudomonas aeruginosa [30], 25 µg/mL (≈ 46.1 µM); with Staphylococcus aureus [32], 50 µg/mL (≈ 92.2 µM); against Bacillus subtilis [33], 12.5 µg/mL (≈ 23.1 µM); in the series with Enterococcus hirae [34], 50 µg/mL (≈ 92.2 µM). For the same compound, the “diameter of the inhibition zone (DIZ)” value (in series [4]; in the series with Escherichia coli [5]; with Pseudomonas aeruginosa [10]; in the series with Escherichia coli [12]; in the series on Escherichia coli [15]) was “inactive” throughout.
